Reference: patent US10682337B2, “Compositions and methods for treatment and prevention of pyrexia in horses” (Kindred Biosciences, Inc., priority 2015, dated 2020)

Legend:
Type in all cases: in vivo
[1] = system: horses with naturally occurring respiratory infections; assay: pilot efficacy study of orally administered metamizole in horses with fever; settings: of 8 horses; oral gel 30 mg/kg; ≥2° F. decrease or ≤101.0° F. 6 hours following dose
Experimental: Metamizole, as an active ingredient, was formulated into a simple gel for oral administration and dosed at 30 mg/kg body weight. Eight horses with naturally occurring respiratory infections were provided. The temperatures of the horses were monitored. […] Horses were treated up to three times with an oral formulation of metamizole sodium. Rectal temperature was monitored to determine response to treatment. […] Pyrexia returned at timepoints appropriate for the drug's plasma residence time.

[2] = system: horses with clinical signs of infectious disease; assay: two-phase efficacy study of oral metamizole in mature horses
Experimental: A two-phase study to determine the efficacy of oral metamizole in mature horses was conducted as follows. In the first phase, 9 horses with clinical signs of infectious disease were enrolled.
In the second phase, 8 horses with clinical signs of infectious disease were enrolled.
The oral formulation of metamizole used for both phases was an aqueous formulation comprising 500 mg/ml metamizole sodium monohydrate, 10 mg/ml xanthan gum, and 100 mg/ml propylene glycol, and 15 mg/ml benzyl alcohol. The formulation was adjusted to pH 7.8 using sodium hydroxide.
For both phases, rectal temperature was monitored at pre-determined intervals. Horses were redosed based on rectal temperature and minimum dosing intervals up to five additional times, for a total of six doses. Fever was required for redose with metamizole.

[3] = oral bioavailability of metamizole in horses (plasma 4-MAA); settings: four horses; 30 mg/kg; water slurry via nasogastric intubation vs IV Vetalgina; plasma 4-MAA up to 48 hours; FIG. 1
Experimental: The commercially available Vetalgina product (Intervet) for IV administration (sodium salt) was administered in accordance with the manufacturer's instructions. Plasma was collected prior to administration and at specified intervals for up to 48 hours. Horses underwent a washout period, and then were administered the active ingredient (metamizole sodium monohydrate) in a water slurry to the horses' stomach via nasogastric intubation. Plasma was collected again prior to […] administration and at specified intervals for up to 48 hours. Horses were treated with matched doses on a milligram per kilogram basis for both test articles. Plasma was assayed for the primary metabolite of metamizole sodium, 4-methylaminoantipyrine (4-MAA).

## Cc1c(N(C)CS(=O)(=O)O)c(=O)n(-c2ccccc2)n1C [metamizole sodium]
[1]
  horses with clinically significant improvement in rectal temperature: 8

## Cc1c(N(C)CS(=O)(=O)O)c(=O)n(-c2ccccc2)n1C [metamizole sodium monohydrate]
[2]; 30 and 40 mg/kg oral, up to six doses
  Adverse events: consistent with the underlying infections required for enrollment
[2]; Phase 2, 40 mg/kg oral
  horses defined as primary responders after Dose 1: 7/8
[2]; phase 1, 30 mg/kg oral
  horses defined as primary responders after Dose 1: 7/9

## Cc1c(N(C)CS(=O)(=O)O)c(=O)n(-c2ccccc2)n1C [metamizole, [(2,3-dihydro-1,5-dimethyl-3-oxo-2-phenyl-1H-pyrazol-4-yl)methylamino] methanesulfonic acid]
[3]
  bioavailability, orally vs parenterally administered metamizole: comparable bioavailability
